For data set [1], the system named is intracellular amastigotes of L. panamensis (MHOM/CO/87/UA140-EGFP strain). As to the kind of experiment: In vitro antileishmanial activity on intracellular amastigotes (GFP, flow cytometry). It counts as cell-based, Leishmania (V) panamensis. The settings on record: for SI (Selectivity Index = LC50/EC50): LC50 U-937 / EC50 L. panamensis amastigotes; for EC50: intracellular amastigotes in U-937 cells, 72 h exposure, mean ± SD, Probit. The procedure: Antileishmanial activity of compounds was determined according to the ability of the compound to reduce the infection by L. panamensis parasites. For this, the antileishmanial activity was tested on intracellular amastigotes of L. panamensis transfected with the green fluorescent protein gene (MHOM/CO/87/UA140-EGFP strain). Briefly, U-937 human cells at a density of 3 × 10^5 cells/mL in RPMI 1640 and 0.1 μg/mL of PMA (phorbol-12-myristate-13-acetate) were dispensed on 24-wells microplate and then infected with stationary phase growing L. panamensis promastigotes in 15:1 parasites per cell ratio. Plates were incubated at 34 °C and 5% CO2 for 3 h, and then cells were washed twice with phosphate buffer solution (PBS) to eliminate not internalized parasites. Fresh RPMI-1640 was added into each well (1 mL), and plates were incubated again. After 24 h of infection, the RPMI-1640 medium was replaced by fresh culture medium containing each compound at four serial dilutions (50, 12.5, 3.125 and 0.78 μg/mL) and plates were then incubated at 37 °C and 5% CO2 during 72 h, then, cells were removed from the bottom plate with 100 µL of EDTA/trypsin (250 mg) solution. The cells were centrifuged at 1100 rpm during 10 min at 4 °C, the supernatant was discarded, and cells were washed with 1 mL of cold PBS and centrifuged at 1100 rpm for 10 min at 4 °C. Cells were washed two times employing PBS, as previously, and after the last wash, the supernatant was discarded, and cells were suspended in 500 μL of PBS.
Cells were analyzed by flow cytometry employing a flow cytometer (FC 500MPL, Cytomics, Beckman Coulter. Pasadena, CA, USA) reading at 488 nm (exciting) and 525 nm (emitting) over an argon laser and counting 10,000 events. Infected cells were determined according to the events for green fluorescence (parasites). All determinations for each compound and standard drug were carried out by triplicate, in two experiments. Infected cells exposed to control drug (amphotericin B) were used as the control for antileishmanial activity (positive control), while infected cells incubated in the absence of any compound or drug were used as another control for infection (negative control). Nonspecific fluorescence was corrected by subtracting the fluorescence of unstained cells. Determinations were done by triplicate in at least two independent experiments.
The antileishmanial activity was determined according to the reduction of the percentage of fluorescent parasites determined according to the median fluorescence intensity (MFI) obtained for each experimental condition by cytometry. The parasite values for each concentration of compound were calculated by Equation (3), where the % of parasites in control well, corresponds to 100% of parasites:(3) % Parasites=(MFI exposed parasites/MFI unexposed parasites)×100
Then, the inhibition percentage was calculated with Equation (4):(4) % Inhibitors of Parasites=100−(% Parasites)
Results of antileishmanial activities were expressed as the median effective concentrations (EC50) measured by Probit method.
For orientation: A flow cytometer gives signals particle by particle.

Data set [2] can be described thus: Cytotoxic activity, MTT method. It counts as cell-based. The settings on record: human, LC50. The procedure:
Cytotoxicity of the compounds was evaluated on human monocytes (U-937 ATCC CRL-1593.2) in an exponential growth phase and adjusted at 1 × 10^5 cells/mL in RPMI-1640 enriched with 10% fetal bovine serum (FBS). One hundred microliters of cell suspension were dispensed in each well of a 96-wells microplate, and then 100 μL of 200-50-12.5 and 3.125 μg/mL concentration of each compound or standard drug (amphotericin B) were added dissolved in PBS with 0.5% DMSO. Cell exposed to compounds or standard drugs were incubated 72 h at 37 °C and 5% of CO2. Cytotoxic activity of each compound was determined according to the effect on the cell viability by the MTT microenzymatic method in which 3-(4,5-dimethylthiazol-2-yl)-2,5-diphenyltetrazolium bromide is reduced to a purple formazan product by mitochondrial enzyme succinate dehydrogenase. Thus, 10 μL/well of MTT solution (5 mg/mL) was added to each well of exposed and unexposed cells, and plates were incubated at 37 °C, 5% CO2 during 3 h. The reaction was stopped by adding 100 μL/well of isopropanol with 50% and 10% of SDS (sodium dodecyl sulfate). The concentration of formazan was determined spectrophotometrically at 570 nm (Varioskan, Thermo, Waltham, MA, USA) and intensity of color (absorbance) was registered as O.D. Cells exposed to control drug (amphotericin B) were used as control for toxicity (positive control) while cell incubated in the absence of any compound or drug were used as control for viability (negative control). Non-specific absorbance was corrected by subtracting absorbance (O.D) of the blank. Determinations were done by triplicate in at least two independent experiments.
Cytotoxicity was determined according to viability and mortality percentages obtained for each experimental condition (synthesized compounds, amphotericin B, and culture medium). Results were expressed as the mean lethal concentrations (LC50), the concentration necessary to kill 50% of cells, calculated by the parametric method of linear regression that permits doses-response analysis (Probit analysis).
Initially, viability percentages were calculated by Equation (1), where the O.D of control well, corresponds to 100% of viability:(1) % Viability=(O.D. exposed cells/O.D. unexposed cells)×100
Then, the percentage of cell growth inhibition was calculated using Equation (2):(2) % Inhibition =100−(% Viability)
The toxicity was defined according to LC50 values, using the follow scale: Toxic; LC50 < 100 μM; moderately toxic; LC50 > 100 μM and < 200 μM and potentially nontoxic; LC50 > 200 μM.

Setting [3] is: Leishmania panamensis, U-937, 72 h.

The structures appear in SMILES notation.

Take `O=CC1=Cc2ccccc2SC1c1ccc(Cl)cc1` (stereo not drawn) [Compound 13c, 2-(4-Chlorophenyl)-2H-thiochromene-3-carbaldehyde]: the “SI (Selectivity Index = LC50/EC50)” value in data set [1] amounted to 4.3. Further, a half-maximal response in data set [1] (setting [3]) (EC50) required 37 ± 5.6 µM. The compound further registered a CC50 at 72 h in data set [2] of 161 ± 27.9 µM.
Turning to `C[C@@H]1[C@H](O)[C@@H](C)/C=C/C=C/C=C/C=C/C=C/C=C/C=C/[C@H](O[C@@H]2O[C@H](C)[C@@H](O)[C@H](N)[C@@H]2O)C[C@@H]2O[C@](O)(C[C@@H](O)C[C@@H](O)[C@H](O)CC[C@@H](O)C[C@@H](O)CC(=O)O[C@H]1C)C[C@H](O)[C@H]2C(=O)O` [Amphotericin B, reference compound], in data set [1] (setting [3]), the EC50 stood at 0.05 µM. This compound registered a CC50 at 72 h in data set [2] of 56.8 µM.
For `N#CC1CSc2ccccc2C1=O` (stereo not drawn) [Compound 9a, 4-Oxo-thiochromane-3-carbonitrile], the “SI (Selectivity Index = LC50/EC50)” value in data set [1] is listed as 7.2. This compound also displayed an EC50 in data set [1] (setting [3]) of 108 ± 34.3 µM. In addition, in data set [2], the midpoint of cytotoxicity, the CC50 at 72 h, lay at 770 ± 49.7 µM.
In the same order, the values of `CC(=O)C1=Cc2ccccc2SC1c1ccccc1` (stereo not drawn) [Compound 8c, 1-(2-Phenyl-2H-thiochromen-3-yl)ethan-1-one] are < 2.3, > 2.6 µM and 6 ± 0.4 µM.
On to `CCCCCCCCCCOC(=O)C1CC(=O)c2ccccc2S1` (stereo not drawn) [Compound 22d, Decyl 4-oxo-thiochromane-2-carboxylate], for which the “SI (Selectivity Index = LC50/EC50)” value in data set [1] is < 1.0. In addition, the EC50 in data set [1] (setting [3]) was > 144 µM. For the same compound, half-maximal cytotoxicity in data set [2] (CC50 at 72 h) was put at 140 ± 20.7 µM.
In the same order, the values of `O=C(C1=Cc2ccccc2SC1c1ccccc1)C(F)(F)F` (stereo not drawn) [Compound 8e] are 0.7, 29.6 ± 6.2 µM and 21.2 ± 3.4 µM.
In the same order, the values of `O=C(C1=Cc2ccccc2SC1c1ccc(C(F)(F)F)cc1)c1ccc(Cl)cc1` (stereo not drawn) [Compound 15b, (4-Chlorophenyl)(2-(4-(trifluoromethyl)phenyl)-2H-thiochromen-3-yl)methanone] are 2.6, 37.9 ± 2.8 µM and 97.2 ± 14.2 µM.
For the compound `CCCCOC(=O)C1CC(=O)c2ccccc2S1` (stereo not drawn) [Compound 22b, Butyl 4-oxo-thiochromane-2-carboxylate], the “SI (Selectivity Index = LC50/EC50)” value in data set [1] is reported as < 1.2. For the same compound, in data set [1] (setting [3]), the EC50 was > 189 µM. This compound registered a CC50 at 72 h in data set [2] of 231 ± 44.5 µM.
In the same order, the values of `CCCCCCCCCCCCNC(=O)C1CC(=O)c2ccccc2S1` (stereo not drawn) [Compound 24b, N-dodecyl-4-oxo-thiochromane-2-carboxamide] are < 1.8, > 80 µM and 148 ± 45.4 µM.
In the same order, the values of `Cc1ccccc1NC(=O)C1CC(=O)c2ccccc2S1` (stereo not drawn) [Compound 24c, 4-Oxo-N-(o-tolyl)thiochromane-2-carboxamide] are < 1.2, > 101 µM and 119 ± 10.9 µM.
As to `N#CC1=Cc2ccccc2SC1` [Compound 8a, 2H-Thiochromene-3-carbonitrile], in data set [1], the “SI (Selectivity Index = LC50/EC50)” value is recorded as 0.7. In addition, the midpoint of cytotoxicity in data set [2], the CC50 at 72 h, lay at 4 ± 0.6 µM.
On to `COc1ccc2c(c1)C(=O)CC(C(=O)O)S2` (stereo not drawn) [Compound 20c, 6-Methoxy-4-oxo-thiochromane-2-carboxylic acid], for which the “SI (Selectivity Index = LC50/EC50)” value in data set [1] was 0.2. In data set [1] (setting [3]), this compound registered a 50% effective concentration (EC50) of 494 ± 324 µM. The same compound had a CC50 at 72 h in data set [2] of 76.3 ± 8.6 µM.
On to `CCCCCC1Sc2ccccc2C=C1C(C)=O` (stereo not drawn) [Compound 8d, 1-(2-Pentyl-2H-thiochromen-3-yl)ethan-1-one], for which, in data set [1], the “SI (Selectivity Index = LC50/EC50)” value was determined as 3.1. This compound yielded a CC50 at 72 h in data set [2] of 25.7 ± 4.6 µM.
As for `CCCCCC1Sc2ccccc2C(O)=C1C(C)=O` (stereo not drawn) [Compound 10d, 1-(4-Hydroxy-2-pentyl-2H-thiochromen-3-yl)ethan-1-one], in data set [1], the “SI (Selectivity Index = LC50/EC50)” value is 4.1. For the same compound, the EC50 is < 20 µM in data set [1] (setting [3]) and 12.5 ± 3.3 µM in data set [1]. Further, it took 51 ± 9 µM to reach half-maximal cytotoxicity in data set [2] (CC50 at 72 h).
Consider `COC(=O)C1=Cc2ccccc2SC1` [Compound 8b, Methyl 2H-thiochromene-3-carboxylate], for which the “SI (Selectivity Index = LC50/EC50)” value in data set [1] came out at 2.8. The EC50 in data set [1] (setting [3]) worked out at 126 ± 15.5 µM. Moreover, the “antileishmanial activity (in words)” value in data set [1] (intracellular amastigotes of L. panamensis) is “practically inactive”. Further, in data set [2], the CC50 at 72 h stood at 352 ± 47.5 µM.
On to `CCCCCCOC(=O)C1CC(=O)c2ccccc2S1` (stereo not drawn) [Compound 22c, Hexyl 4-oxo-thiochromane-2-carboxylate], for which the “SI (Selectivity Index = LC50/EC50)” value in data set [1] is < 2.1. Also, the EC50 in data set [1] (setting [3]) is > 103 µM. The CC50 at 72 h in data set [2] is 213 ± 47.9 µM.
Take `COC(=O)C1CSc2ccccc2C1=O` (stereo not drawn) [Compound 9b + 10b, Methyl 4-oxo-thiochromane-3-carboxylate]: the “SI (Selectivity Index = LC50/EC50)” value in data set [1] is 3.6. Moreover, in data set [1] (setting [3]), the EC50 was 134 ± 27 µM. The compound also displayed a CC50 at 72 h in data set [2] of 485 ± 45.4 µM.
In the same order, the values of `O=C1CC(C(=O)O)Sc2ccccc21` (racemic) [Compound 20a, 4-Oxothiochromane-2-carboxylic acid] are 0.3, 414 ± 58.5 µM and 133 ± 67.7 µM.
Compound `O=C(C1=Cc2ccccc2SC1c1ccccc1)c1ccccc1` (stereo not drawn) [Compound 15a, Phenyl(2-phenyl-2H-thiochromen-3-yl)methanone] showed an EC50 in data set [1] (setting [3]) of 43.9 ± 11.6 µM. For the same compound, in data set [2], the CC50 at 72 h is > 609 µM.
Regarding `CCCCCCNC(=O)C1CC(=O)c2ccccc2S1` (stereo not drawn) [Compound 24a, N-hexyl-4-oxo-thiochromane-2-carboxamide], the “SI (Selectivity Index = LC50/EC50)” value in data set [1] amounted to 0.7. In data set [1] (setting [3]), this compound gave an EC50 of 216 ± 2.5 µM. Also, it took 157 ± 9.7 µM to reach half-maximal cytotoxicity in data set [2] (CC50 at 72 h).
Consider `O=CC1=Cc2ccccc2SC1c1ccccc1[N+](=O)[O-]` (stereo not drawn) [Compound 13d, 2-(2-Nitrophenyl)-2H-thiochromene-3-carbaldehyde], for which the “SI (Selectivity Index = LC50/EC50)” value in data set [1] was 2.6. In data set [2], the CC50 at 72 h stood at 23.9 ± 2.4 µM.
For the compound `O=CC1=Cc2ccccc2SC1c1ccccc1` (stereo not drawn) [Compound 13a, 2-Phenyl-2H-thiochromene-3-carbaldehyde], the “SI (Selectivity Index = LC50/EC50)” value in data set [1] was < 2.3. Moreover, the EC50 in data set [1] (setting [3]) is > 23.8 µM. Moreover, the CC50 at 72 h in data set [2] amounted to 54.7 ± 3.2 µM.
In the same order, the values of `O=C(C1=Cc2ccccc2SC1c1ccc([N+](=O)[O-])cc1)c1ccc(Cl)cc1` (stereo not drawn) [Compound 15c, (4-Chlorophenyl)(2-(4-nitrophenyl)-2H-thiochromen-3-yl)methanone] are 4.0, 38.1 ± 11.3 µM and 151 ± 18.1 µM.

By EC50 is commonly meant the concentration needed to bring the measured effect to its halfway point. Higher therefore signals lower potency in that assay. For orientation: CC50 means the concentration giving 50% cytotoxicity. High values mean lower toxicity to the cells, low ones greater toxicity to the cells.
